Assay results from ChEMBL document CHEMBL3817805, “Benzamide capped peptidomimetics as non-ATP competitive inhibitors of CDK2 using the REPLACE strategy” (Bioorg Med Chem Lett, 2016).
Residues, ends and D or L forms follow the SMILES beside them.

Key:
[1] = molecular target: Cyclin-dependent kinase 4/cyclin D1 (Homo sapiens, UniProt P24385); test: Inhibition of recombinant human CDK4/cyclin D1 using fluoresceinyl-AhxPro-Val-Lys-Arg-Arg-Leu-(3ClPhe)-Gly as substrate incubated for 45 mins by fluorescence polarization assay; assay type: protein-complex assay
CDK2/Cyclin A2 = CDK2/Cyclin A2 (Homo sapiens, UniProt P24941); test: Inhibition of recombinant human CDK2/cyclin A2 using fluoresceinyl-Ahx-Pro-Val-Lys-Arg-Arg-Leu-Phe-Gly as substrate incubated for 45 mins by fluorescence polarization assay; assay type: protein-complex assay
U2OS = test: Antiproliferative activity against human U2OS cells incubated for 72 hrs by MTT assay; assay type: functional, cell-based
[2] = Antiproliferative activity against human DU145 cells incubated for 72 hrs by MTT assay; assay type: functional, cell-based; settings: DU-145, 72 h

Sequence of Cyclin-dependent kinase 4/cyclin D1 (P11802 whole entry): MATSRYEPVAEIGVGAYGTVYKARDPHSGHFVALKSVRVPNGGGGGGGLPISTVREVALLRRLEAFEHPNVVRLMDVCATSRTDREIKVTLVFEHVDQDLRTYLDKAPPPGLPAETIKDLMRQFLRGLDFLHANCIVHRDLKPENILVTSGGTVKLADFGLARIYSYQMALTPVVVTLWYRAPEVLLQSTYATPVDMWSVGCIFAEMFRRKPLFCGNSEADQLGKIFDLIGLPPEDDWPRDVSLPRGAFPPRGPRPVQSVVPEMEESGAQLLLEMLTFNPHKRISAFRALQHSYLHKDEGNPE
Sequence of Cyclin-dependent kinase 4/cyclin D1 (P24385 whole entry): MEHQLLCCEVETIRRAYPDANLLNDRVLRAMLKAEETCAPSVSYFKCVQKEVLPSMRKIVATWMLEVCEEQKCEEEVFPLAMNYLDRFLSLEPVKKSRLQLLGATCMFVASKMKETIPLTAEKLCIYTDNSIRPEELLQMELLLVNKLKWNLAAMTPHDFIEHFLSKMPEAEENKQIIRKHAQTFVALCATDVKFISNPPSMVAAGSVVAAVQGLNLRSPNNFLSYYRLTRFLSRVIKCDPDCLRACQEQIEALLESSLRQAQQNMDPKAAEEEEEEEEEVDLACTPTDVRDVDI

For `CC(C)CC(CC(=O)N(C)[C@@H](Cc1ccccc1)C(N)=O)NC(=O)[C@H](CCCNC(=N)N)NC(=O)c1ccc(OC2CCNCC2)cc1` (stereo partly drawn), the IC50 [1] was 31 µM and the IC50 (CDK2/Cyclin A2) was 40.4 µM.

With `CCOc1cc(C(=O)N[C@@H](CCCNC(=N)N)C(=O)NC(CC(=O)N(C)[C@@H](Cc2ccccc2)C(N)=O)CC(C)C)ccc1CN1CCNCC1` (stereo partly drawn) the IC50 [1] was 18.6 µM and the IC50 (CDK2/Cyclin A2) was 22.6 µM.

`CC(C)CC(CC(=O)N(C)[C@@H](Cc1ccccc1)C(N)=O)NC(=O)[C@H](CCCNC(=N)N)NC(=O)c1ccc(CN2CCNC[C@H]2C)cc1` (stereo partly drawn) gave an IC50 [1] of 45.4 µM and an IC50 (CDK2/Cyclin A2) of 22.3 µM.

Compound `CC(C)CC(CC(=O)N(C)[C@@H](Cc1ccccc1)C(N)=O)NC(=O)[C@H](CCCNC(=N)N)NC(=O)c1ccc(CN2CCNCC2)c(O)c1` (stereo partly drawn) has an IC50 [1] of 11.8 µM and an IC50 (CDK2/Cyclin A2) of 7.42 µM.

For `CCOc1cc(C(=O)N[C@@H](CCCNC(=N)N)C(=O)N[C@@H](CC(C)C)C(=O)N[C@H](C(=O)N[C@@H](Cc2ccccc2)C(=O)O)[C@@H](C)CC)ccc1CN1CCNCC1` (HELM PEPTIDE1{[CCOc1cc(C(=O)[*:2])ccc1CN1CCNCC1].R.L.I.F}$$$$V2.0), the IC50 [1] was 5.14 µM and the IC50 (CDK2/Cyclin A2) was 5.95 µM.

For `CC(C)C[C@H](NC(=O)[C@H](CCCNC(=N)N)NC(=O)c1ccc(CN2CCNCC2)cc1)C(=O)N[C@@H](CC(N)=O)C(=O)N1CCC[C@@H]1C(=O)N[C@H](Cc1ccccc1)C(=O)N[C@@H](Cc1ccccc1)C(=O)O`, the IC50 [1] was 12.9 µM and the IC50 (CDK2/Cyclin A2) was 5.3 µM.

For `CC[C@H](C)[C@H](NC(=O)[C@H](CC(C)C)NC(=O)[C@H](CCCNC(=N)N)NC(=O)c1ccc(N2CCNCC2)cc1)C(=O)N[C@@H](Cc1ccccc1)C(=O)O` (HELM PEPTIDE1{[O=C(c1ccc(N2CCNCC2)cc1)[*:2]].R.L.I.F}$$$$V2.0), the IC50 [1] was 23.8 µM.

For `CC(C)CC(CC(=O)N(C)[C@@H](Cc1ccccc1)C(N)=O)NC(=O)[C@H](CCCNC(=N)N)NC(=O)c1ccc(CN2CCN(C3CCN(C)CC3)CC2)cc1` (stereo partly drawn), the IC50 [1] was 48.9 µM and the IC50 (CDK2/Cyclin A2) was 8.32 µM.

`CC(C)CC(CC(=O)NC(Cc1ccsc1)C(N)=O)NC(=O)[C@H](CCCNC(=N)N)NC(=O)c1ccc(CNC2CCNCC2)cc1` (stereo partly drawn) gave an IC50 (CDK2/Cyclin A2) of over 100 µM.

`CCN1CCN(Cc2ccc(C(=O)N[C@@H](CCCNC(=N)N)C(=O)NC(CC(=O)NC(Cc3ccsc3)C(N)=O)CC(C)C)cc2)[C@@H](C)C1` (stereo partly drawn) showed an IC50 [1] of 45.6 µM and an IC50 (CDK2/Cyclin A2) of 6.78 µM.

For `CC(C)CC(CC(=O)NC(Cc1ccsc1)C(N)=O)NC(=O)[C@H](CCCNC(=N)N)NC(=O)c1ccc(CN2CCNC[C@@H]2C)c(O)c1` (stereo partly drawn), the IC50 (CDK2/Cyclin A2) was 13.1 µM.

Work on `CC[C@H](C)[C@H](NC(=O)[C@H](CC(C)C)NC(=O)[C@H](C)NC(=O)c1ccc(CN2CCNCC2)cc1)C(=O)N[C@@H](Cc1ccccc1)C(=O)O` (HELM PEPTIDE1{[O=C(c1ccc(CN2CCNCC2)cc1)[*:2]].A.L.I.F}$$$$V2.0) yielded an IC50 [1] of 51.5 µM and an IC50 (CDK2/Cyclin A2) of over 100 µM.

`CC(C)C[C@H](NC(=O)[C@H](CCCNC(=N)N)NC(=O)c1ccc(CNC(=N)N)cc1)C(=O)N[C@@H](CC(N)=O)C(=O)N1CCC[C@@H]1C(=O)N[C@H](Cc1ccccc1)C(=O)N[C@@H](Cc1ccccc1)C(=O)O` gave an IC50 [1] of 15.3 µM and an IC50 (CDK2/Cyclin A2) of 0.69 µM.

Compound `CC[C@H](C)[C@H](NC(=O)[C@H](CC(C)C)NC(=O)[C@H](CCCNC(=N)N)NC(=O)c1ccc(CN2CCNCC2)cc1)C(=O)N[C@@H](Cc1ccccc1)C(=O)O` (HELM PEPTIDE1{[O=C(c1ccc(CN2CCNCC2)cc1)[*:2]].R.L.I.F}$$$$V2.0) has an IC50 [1] of 11.7 µM and an IC50 (CDK2/Cyclin A2) of 12.9 µM.

`CCCN1CCN(Cc2ccc(C(=O)N[C@@H](CCCNC(=N)N)C(=O)NC(CC(=O)NC(Cc3ccsc3)C(N)=O)CC(C)C)cc2)CC1` (stereo partly drawn) showed an IC50 [1] of 8.52 µM and an IC50 (CDK2/Cyclin A2) of 31.3 µM.

With `CC(C)CC(CC(=O)NC(Cc1ccsc1)C(N)=O)NC(=O)[C@H](CCCNC(=N)N)NC(=O)c1cc(OC2CCNCC2)cc(OC2CCNCC2)c1` (stereo partly drawn) the IC50 (CDK2/Cyclin A2) was over 30 µM.

`CCN1CCN(Cc2ccc(C(=O)N[C@@H](CCCNC(=N)N)C(=O)NC(CC(=O)NC(Cc3ccsc3)C(N)=O)CC(C)C)cc2)CC1` (stereo partly drawn) showed an IC50 [1] of 74.3 µM and an IC50 (CDK2/Cyclin A2) of 17.4 µM.

Work on `CC[C@H](C)[C@H](NC(=O)[C@H](CC(C)C)NC(=O)[C@H](CCCNC(=N)N)NC(=O)c1ccc(CN2CCN(C)CC2)cc1)C(=O)N[C@@H](Cc1ccccc1)C(=O)O` (HELM PEPTIDE1{[CN1CCN(Cc2ccc(C(=O)[*:2])cc2)CC1].R.L.I.F}$$$$V2.0) yielded an IC50 [1] of 11.3 µM and an IC50 (CDK2/Cyclin A2) of 7.92 µM.

For `CC(C)CC(CC(=O)NC(Cc1ccsc1)C(N)=O)NC(=O)[C@H](CCCNC(=N)N)NC(=O)c1ccc(CN(C)C2CCCNC2)cc1` (stereo partly drawn), the IC50 (CDK2/Cyclin A2) was 31 µM and the IC50 (U2OS) was 153 µM.

Work on `CC(C)CC(CC(=O)NC(Cc1ccsc1)C(N)=O)NC(=O)[C@H](CCCNC(=N)N)NC(=O)c1ccc(CN(C)C2CCNCC2)cc1` (stereo partly drawn) yielded an IC50 (CDK2/Cyclin A2) of over 50 µM.

`CC(C)CC(CC(=O)NC(Cc1ccsc1)C(N)=O)NC(=O)[C@H](CCCNC(=N)N)NC(=O)c1ccc(C=C2CCNCC2)cc1` (stereo partly drawn) gave an IC50 [1] of over 100 µM and an IC50 (CDK2/Cyclin A2) of 9.16 µM.

For `CCCN1CCN(Cc2ccc(C(=O)N[C@@H](CCCNC(=N)N)C(=O)NC(CC(=O)NC(Cc3ccsc3)C(N)=O)CC(C)C)cc2)[C@@H](C)C1` (stereo partly drawn), the IC50 [1] was 9.36 µM and the IC50 (CDK2/Cyclin A2) was 22.4 µM.

With `CC(C)CC(CC(=O)NC(Cc1ccsc1)C(N)=O)NC(=O)[C@H](CCCNC(=N)N)NC(=O)c1ccc(CC2CCNCC2)cc1` (stereo partly drawn) the IC50 (CDK2/Cyclin A2) was over 30 µM.

For `CC(C)CC(CC(=O)NC(Cc1ccsc1)C(N)=O)NC(=O)[C@H](CCCNC(=N)N)NC(=O)c1ccc(C=C2CCN(C)CC2)cc1` (stereo partly drawn), the IC50 [1] was 69.9 µM and the IC50 (CDK2/Cyclin A2) was 26 µM.

For `CC[C@H](C)[C@H](NC(=O)[C@H](CC(C)C)NC(=O)[C@H](CCCNC(=N)N)NC(=O)c1ccc(CN2CCNCC2)c(O)c1)C(=O)N[C@@H](Cc1ccccc1)C(=O)O` (HELM PEPTIDE1{[O=C(c1ccc(CN2CCNCC2)c(O)c1)[*:2]].R.L.I.F}$$$$V2.0), the IC50 [1] was 10.4 µM and the IC50 (CDK2/Cyclin A2) was 4.56 µM.

With `CC(C)CC(CC(=O)N(C)[C@@H](Cc1ccccc1)C(N)=O)NC(=O)[C@H](CCCNC(=N)N)NC(=O)c1ccc(CN2CCNC[C@@H]2C)cc1` (stereo partly drawn) the IC50 [1] was over 100 µM, the IC50 [2] was 204 µM and the IC50 (CDK2/Cyclin A2) was 13.4 µM. The IC50 (U2OS) was 229 µM.
